Measurements as given in article PMC8125089, “Synthesis, Structure, Carbohydrate Enzyme Inhibition, Antioxidant Activity, In Silico Drug-Receptor Interactions and Drug-Like Profiling of the 5-Styryl-2-Aminochalcone Hybrids” (Molecules, 2021).
Read-outs that look alike come from different tables or passages of the source.

What was measured:
[1] = DPPH radical scavenging assay; conditions: free radical scavenging; mean ± SD of three independent experiments
Excerpt: (§1) Reduced or lack of antioxidant activity of these compounds was attributed to the presence of intramolecular N-H···O hydrogen bond between amino and kenone group of the 2-aminochalcones and their sulfanamido derivatives which is envisaged to deactivate the unsaturated moiety. […] A combination of the styryl and the electrophilic α,β-unsaturated carbonyl arms on the same molecular framework encouraged us to evaluate the test compounds for antioxidant properties through the DPPH and NO radical scavenging assays. […] Compound 2a has potential to inhibit both α-glucosidase and α-amylase activities, and to reduce oxidative stress. […] The observed free radical scavenging activities of these molecular hybrids is presumably due to the presence of styryl arm on the intramolecularly hydrogen bonded 2-aminochalcone scaffold.
The antioxidant activities of the test compounds against ascorbic acid (Sigma Aldrich, Saint Louis, Missouri, USA) as a positive control were evaluated using 2,2-diphenyl-1-picrylhydrazyl (DPPH) radical scavenging assay developed by Zhu et al. as described in our previous study. Triplicate solutions (20 µL) of the test compounds and ascorbic acid in DMSO (final concentrations: 5, 10, 25, 50, and 100 µM) were added into each designated well of a 96-well plate. A solution of 0.20 mM DPPH (20 µL) in methanol was added to each well, and the 96-well plate was wrapped with aluminum foil and incubated in the dark for 45 min. Five absorbance readings were recorded at 512 nm using Varioskan flash microplate spectrophotometer reader. The average values obtained from the absorbance readings were used to determine the IC50 and standard deviation values.

[2] = NO free radical scavenging assay (sodium nitroprusside, Griess reaction); conditions: mean ± SD of three independent experiments
Excerpt: as §1
Nitric oxide was generated from sodium nitroprusside and measured by Griess’ reaction following the literature method. The experiment was done in triplicate with ascorbic acid (vitamin C) used as a positive control for the assay. In a 96 well plate, 5 μL of the test compounds (0.1, 0.5, 1.0, 5.0 and 10.0 μM in methanol) or the positive control were mixed with 5 μL of 10 mM sodium nitroprusside prepared in phosphate buffered saline (pH = 7.4) and allowed to incubate at room temperature for 2.5 h. Afterwards, 30 μL of the Griess reagent (a mixture of 0.2% N-(1-naphthyl)ethylenediamine dihydrochloride and 2% sulfanilamide in […]) was added to each well and the mixtures were and allowed to stand at room temperature for 30 min. Five absorbance readings were recorded at 546 nm using Varioskan flash microplate spectrophotometer reader.

[3] = target: yeast α-glucosidase from Saccharomyces cervisiae (Saccharomyces cerevisiae, UniProt P53341); assay: biochemical
Experimental: All the tests and analyses were performed in triplicates following a modified published protocol described in our previous study. […] 2.5, 5, 10, 25 and 50 µM. α-Glucosidase solution (0.48 u/mL, 20 µL), phosphate buffer (100 mM, pH 6.8; 30 µL) and the test sample (20 µL) as well as the reference standard were added in the designated wells, and the reaction mixtures were incubated at 37 °C for 10 min. 2 mM p-nitrophenyl-α-D-glucopyranoside (20 µL) was added to each of the wells containing reaction mixture to initiate the reaction. The reaction was pre-incubated for 30 min at 37 °C. The reaction was stopped by the addition of 20 μL of a solution of sodium carbonate (200 mM) to each well. Five absorbance readings were recorded for each triplicate run at a wavelength of 400 nm using Varioskan flash microplate spectrophotometer (Thermo Scientific, Waltham, MA, USA). The average values obtained from the readings were used to determine the IC50 and standard deviation values. The values were calculated by the nonlinear regression analysis and expressed as the mean SD of three distinct experiments using Graph Pad Prism software.

α-amylase = assay: α-Amylase inhibition assay (α-Amylase Inhibitor Screening Kit); type: biochemical; conditions: mean ± SD of three independent experiments
Experimental: The α-amylase assay was performed in triplicate using a 96-well plate following the procedure by the manufacturer as outlined in the α-Amylase Inhibitor Screening Kit (Catalog No. K482; Bio Vision). […] For inhibitor control (10 µL of α-amylase inhibitor and 40 µL of assay buffer were added to 3 wells), enzyme control (50 µL of assay buffer was added to three wells) and 50 µL of the test compounds were added into the remaining wells. A solution of α-amylase enzyme (50 µL) prepared by adding 490 µL of assay buffer to 10 µL of α-amylase enzyme was added to each of the wells containing the reaction mixture to initiate the reaction. The plate was incubated for 10 min at room temperature in the dark. Five different absorbance readings were recorded for each triplicate run at a wavelength of 405 nm using Varioskan flash microplate spectrophotometer (Thermo Scientific, Waltham, MA, USA). The IC50 and SD values were calculated using graph pad prism.

A549 cells = assay: MTT cytotoxicity assay on A549 cells; type: cell-based, human; conditions: 24 h treatment; for IC50 at 24 h: human, A549 cells
Experimental: (§2) Metabolic diseases such as diabetes require a stable long-term therapy accompanied by well tolerated and low toxicity, and this encouraged us to evaluate the safety profile of 2a and 3e as potential antidiabetic agents at least in vitro. The compounds were evaluated for cytotoxicity against the normal monkey kidney cells (Vero cells) and the adenocarcinomic human epithelial (A549) cell line using the 3-(4,5-dimethylthiazol-2-yl)-2, 5-diphenyltetrazolium (MTT) assay.
(§3) The cytotoxicity activity of compounds 2a and 3e was evaluated against doxorubicin (positive control) using the 3-(4,5-dimethylthiazol-2-yl)-2,5-diphenyltetrazolium bromide (MTT) assay following a modification of a literature method by Mosmann. The Vero and A549 cells were maintained in Dulbecco′s modified Eagle′s medium (DMEM; Gibco) supplemented with 10% Fetal bovine serum (FBS) and 1% penicillin/streptomycin in culture flasks and incubated at 37 °C in 5% CO2. When the cells reached 85% confluency, they were detached using 2% trypsin. Cell count was performed using a handheld automated cell counter (Scapter 3.0™, Merck). The cells were seeded at 1 × 10^5 cells/well and incubated overnight to allow cell attachment. After 24 h, the cells were treated with different concentrations (0, 2.5, 5, 10, 25, 50, 100 µM) of the test compounds and the reference stand. The cells were incubated for 24 h followed by treatment with 20 µL of MTT solution (5 mg/mL). After 4 h incubation period, DMSO (100 µL) was added to each well to dissolve the formazan crystals. Five absorbance readings were recorded at 517 nm using Varioskan flash microplate spectrophotometer reader.

α-glucosidase = α-glucosidase (Saccharomyces cerevisiae, UniProt P53341); assay: Enzyme kinetic studies (Lineweaver-Burk and Dixon plots); type: biochemical; conditions: for Ki / mode of inhibition: α-glucosidase; for Ki: PNPG substrate, read-out: Ki (Dixon plot); for mode of inhibition: Lineweaver-Burk and Dixon plots
Experimental: The Lineweaver-Burk plot of 1/V versus 1/[S] in the presence of different concentrations of compound 2a in the case of α-glucosidase gave a series of straight lines that intersect on the x-axis (Figure 3a). […] The compound probably binds to the active site and other allosteric sites on the enzyme.
Enzyme kinetics studies were performed on compounds 2a and 3e with increasing inhibitor and substrate concentrations. In the experimental procedure, inhibitors concentrations of 0.1, 0.5, 1, 2.5 µM, and final substrate concentration were 0.1, 0.5, 1 and 5 mM were used. 5 μL of the inhibitor and 2 μL of the enzyme (α-glucosidase) were added to each well of the 96-well plate. The reaction was incubated for 20 min at room temperature. 18 μL of the substrate, PNPG (4-nitrophenyl α-D-glucopyranoside) was then added and absorbance readings recorded after every 2 min at wavelength of 400 nm using a Varioskan flash microplate spectrophotometer reader. Lineweaver-Burk plot (the inverse of velocity (1/v) against the inverse of the substrate concentration (1/[S]) were used to determining the type of inhibition, while the inhibitor constant was obtained from the Dixon plot (the inverse of velocity (1/v) against concentration of inhibitor at each substrate concentration)

Vero cells = assay: MTT cytotoxicity assay on Vero cells; type: cell-based; conditions: monkey, 24 h treatment
Experimental: as §2
as §3, with “After 24 h, the cells were treated with different concentrations (0, 2.5, 5, 10, 25, 50, 100 µM) of the test compounds and the reference stand. The cells were incubated for 24 h followed by treatment with 20 µL of MTT solution (5 mg/mL). After 4 h incubation period, DMSO (100 µL) was added to each well to dissolve the formazan crystals.” left out

[4] = mean ± SD of three independent experiments, pH 6.8, 37 °C, read-out: IC50 (SD) α-Glucosidase

Chain of α-glucosidase (P53341 whole entry): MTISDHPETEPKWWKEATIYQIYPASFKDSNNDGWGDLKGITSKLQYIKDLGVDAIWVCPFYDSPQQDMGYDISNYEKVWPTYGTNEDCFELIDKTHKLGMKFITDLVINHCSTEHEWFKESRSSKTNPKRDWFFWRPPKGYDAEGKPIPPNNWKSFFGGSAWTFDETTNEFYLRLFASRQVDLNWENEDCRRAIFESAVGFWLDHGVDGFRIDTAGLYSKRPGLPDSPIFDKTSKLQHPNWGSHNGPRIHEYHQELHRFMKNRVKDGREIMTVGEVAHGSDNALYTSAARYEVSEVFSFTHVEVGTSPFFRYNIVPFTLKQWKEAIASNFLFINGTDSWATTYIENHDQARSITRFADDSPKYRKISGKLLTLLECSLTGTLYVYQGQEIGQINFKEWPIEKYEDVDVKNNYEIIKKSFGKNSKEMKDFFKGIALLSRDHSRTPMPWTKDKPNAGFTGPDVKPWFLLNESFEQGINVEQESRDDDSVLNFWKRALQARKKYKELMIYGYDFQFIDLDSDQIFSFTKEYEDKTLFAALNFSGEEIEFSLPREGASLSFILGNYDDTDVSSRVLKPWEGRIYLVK
Chain of yeast α-glucosidase from Saccharomyces cervisiae (P53341 whole entry): as above

Compound | IC50 [1] | IC50 [2] | IC50 [3] | IC50 (α-amylase) | melting point | IC50 (A549 cells) | IC50 [3, 4] | velocity of the reaction (Vmax) (α-glucosidase; α-glucosidase in the presence of increasing inhibitor concentrations, Lineweaver-Burk plot) | Ki (α-glucosidase) | mode of inhibition (α-glucosidase) | IC50 at 24 h (Vero cells) | IC50 at 24 h (A549 cells)
O=C1O[C@H]([C@@H](O)CO)C(O)=C1O [Ascorbic acid, reference compound] | 4.2 ± 0.27 µM | 6.14 ± 0.21 µM | – | – | – | – | – | – | – | – | – | –
Nc1ccc(/C=C/c2ccccc2)cc1C(=O)/C=C/c1cccc(F)c1 [Compound 3a, (E)-1-(2-Amino-5-((E)-styryl)phenyl)-3-(3-fluorophenyl)prop-2-en-1-one] | 21.6 ± 0.32 µM | 18.9 ± 0.54 µM | 17.8 ± 0.32 µM | 10.7 ± 0.21 µM | 129 to 130 °C | – | – | – | – | – | – | –
CC(=O)c1cc(/C=C/c2ccc(F)cc2)ccc1N [Compound 2b, (E)-1-(2-Amino-5-(4-fluorostyryl)phenyl)ethan-1-one] | 15.8 ± 0.21 µM | 7.2 ± 0.4 µM | 12.7 ± 0.16 µM | 19.3 ± 0.42 µM | 149 to 150 °C | – | – | – | – | – | – | –
COc1cccc2c1C(=O)c1c(O)c3c(c(O)c1C2=O)C[C@@](O)(C(=O)CO)C[C@@H]3O[C@H]1C[C@H](N)[C@H](O)[C@H](C)O1 [Doxorubicin, reference compound] | – | – | – | – | – | 1.14 ± 0.23 µM | – | – | – | – | – | –
Nc1ccc(/C=C/c2ccc(Cl)cc2)cc1C(=O)/C=C/c1ccc(F)cc1 [Compound 3g, (E)-1-(2-Amino-5-((E)-4-chlorostyryl)phenyl)-3-(4-fluorophenyl)prop-2-en-1-one] | 5.2 ± 0.53 µM | 15.1 ± 0.19 µM | 19.2 ± 0.47 µM | 1.7 ± 0.25 µM | 197 to 198 °C | – | – | – | – | – | – | –
Nc1ccc(/C=C/c2ccccc2)cc1C(=O)/C=C/c1ccc(F)cc1 [Compound 3e, (E)-1-(2-Amino-5-((E)-styryl)phenyl)-3-(4-fluorophenyl)prop-2-en-1-one] | 4.2 ± 0.43 µM | 20.5 ± 0.46 µM | – | 1.6 ± 0.52 µM | 161 to 162 °C | – | 5.1 ± 0.61 µM | 0.01 ± 0.002 µM/min | 1.48 ± 0.05 µM | mixed mode of inhibition | 220 ± 0.57 µM | 204 ± 0.55 µM
CC(=O)c1cc(/C=C/c2ccc(Cl)cc2)ccc1N [Compound 2c, (E)-1-(2-Amino-5-(4-chlorostyryl)phenyl)ethan-1-one] | 10.4 ± 0.15 µM | 11.6 ± 0.43 µM | 15.9 ± 0.34 µM | 5.8 ± 0.51 µM | 137 to 138 °C | – | – | – | – | – | – | –
COc1ccc(/C=C/c2ccc(N)c(C(=O)/C=C/c3ccc(F)cc3)c2)cc1 [Compound 3h, (E)-1-(2-Amino-5-((E)-4-methoxystyryl)phenyl)-3-(4-fluorophenyl)prop-2-en-1-one] | 25.8 ± 0.43 µM | 20.2 ± 0.23 µM | 10.5 ± 0.18 µM | 7.6 ± 0.2 µM | 153 to 154 °C | – | – | – | – | – | – | –
Nc1ccc(/C=C/c2ccc(F)cc2)cc1C(=O)/C=C/c1ccc(F)cc1 [Compound 3f, (E)-1-(2-Amino-5-((E)-4-fluorostyryl)phenyl)-3-(4-fluorophenyl)prop-2-en-1-one] | 18.5 ± 0.37 µM | 8.8 ± 0.33 µM | – | 9.5 ± 0.41 µM | – | – | 6.9 ± 0.37 µM | – | – | – | – | –
Nc1ccc(/C=C/c2ccc(Cl)cc2)cc1C(=O)/C=C/c1cccc(F)c1 [Compound 3c, (E)-1-(2-Amino-5-((E)-4-Chlorostyryl)phenyl)-3-(3-fluorophenyl)prop-2-en-1-one] | 15.3 ± 0.1 µM | 10.6 ± 0.3 µM | 12.6 ± 0.31 µM | 2.4 ± 0.1 µM | 187 to 188 °C | – | – | – | – | – | – | –
CC(=O)c1cc(/C=C/c2ccccc2)ccc1N [Compound 2a, (E)-1-(2-Amino-5-styrylphenyl)ethan-1-one] | 7.1 ± 0.32 µM | 8.3 ± 0.22 µM | – | 2.3 ± 0.2 µM | 119 to 120 °C | – | 5.4 ± 0.1 µM | – | 0.3 ± 0.04 µM | non-competitive mode of inhibition | 164.6 ± 0.59 µM | 65.7 ± 0.14 µM
Nc1ccc(/C=C/c2ccc(F)cc2)cc1C(=O)/C=C/c1cccc(F)c1 [Compound 3b, (E)-1-(2-Amino-5-((E)-4-fluorostyryl)phenyl)-3-(3-fluorophenyl)prop-2-en-1-one] | 6.6 ± 0.33 µM | 5.3 ± 0.34 µM | – | 15.6 ± 0.6 µM | 175 to 177 °C | – | 6.1 ± 0.24 µM | – | – | – | – | –
COc1ccc(/C=C/c2ccc(N)c(C(C)=O)c2)cc1 [Compound 2d, (E)-1-(2-Amino-5-(4-methoxystyryl)phenyl)ethan-1-one] | 9.3 ± 0.23 µM | 25.9 ± 0.61 µM | 30.7 ± 0.42 µM | 9 ± 0.31 µM | 139 to 140 °C | – | – | – | – | – | – | –
COc1ccc(/C=C/c2ccc(N)c(C(=O)/C=C/c3cccc(F)c3)c2)cc1 [Compound 3d, (E)-1-(2-Amino-5-((E)-4-methoxystyryl)phenyl)-3-(3-fluorophenyl)prop-2-en-1-one] | 3.9 ± 0.21 µM | 7.9 ± 0.28 µM | – | 7 ± 0.45 µM | – | – | 9.4 ± 0.5 µM | – | – | – | – | –
